Results from patent publication EP2468741A1, “Novel quercetin derivatives, their preparation, pharmaceutical compositions containing them and their use” (Bel/Novamann International s.r.o., priority 2010, dated 2012).

Assay: Free radical inhibiting activity in vitro (DPPH)
Type: biochemical
Settings: 50 µM DPPH in ethanol, 30 minutes, room temperature, decrease in OD, solvent control subtracted
Experimental: A 50 µM solution of 1,1-diphenyl-2-picrylhydrazyl (DPPH) in ethanol is added for 30 minutes at room temperature to a tested sample. The drop in absorbance is then measured and the results are given as the percentage decrease in OD caused by the test compound relative to the solvent used. The tested products are dissolved in ethanol (except product according to Example 7 when DMSO was used); the results (solvent control subtracted) are given as % free radical inhibiting activity as described in table 2.

| Compound | Free radical inhibiting activity (dissolved in DMSO) [%] | Free radical inhibiting activity (dissolved in ethanol) [%] |
| --- | --- | --- |
| 1,3-bis-butyryloxy-11a-hydroxy-9-(3,5,7-tributyryloxy-4H-1-benzopyran-4-on-2-yl)-5a-(3,4-bisbutyryloxyphenyl)-5,6,11-hexahydro-5,6,11-trioxanaphtacene-12-one [Example 7] | 95 | – |
| CC(=O)Oc1ccccc1C(=O)Oc1cc(O)c2c(=O)c(OC(=O)c3ccccc3OC(C)=O)c(-c3ccc(OC(=O)c4ccccc4OC(C)=O)c(OC(=O)c4ccccc4OC(C)=O)c3)oc2c1 [Example 3, 3,7-bis-(2-acetylsalicyloyloxy)-2-(3,4-bis-(2-acetylsalicyloyloxy)phenyl)-5-hydroxy-chromen-4-one] | – | 82 |
| COc1cc(C=CC(=O)Oc2cc(O)c3c(=O)c(OC(=O)C=Cc4ccc(OCC=C(C)C)c(OC)c4)c(-c4ccc(OC(=O)C=Cc5ccc(OCC=C(C)C)c(OC)c5)c(OC(=O)C=Cc5ccc(OCC=C(C)C)c(OC)c5)c4)oc3c2)ccc1OCC=C(C)C [Example 8, 3-(O-prenylferuloyloxy)-2-(3,4-bis-(O-prenylferuloyloxy)phenyl)-7-(O-prenyl-feruloyloxy)-5-hydroxy-chromen-4-one] | – | 75 |
| O=c1c(O)c(-c2ccc(O)c(O)c2)oc2cc(O)cc(O)c12 [Quercetin] | – | 62 |
